From patent publication US11065253B2, “Arylquinazolines” (Merck Patent GmbH, priority 2013, dated 2021)
Like-named read-outs stand apart in the source and are kept apart here.

Test system: phospho-serine 2056 DNA-PK in HCT116 cells
Assay: DNA-PK phosphorylation at serine 2056 (cellular), ELISA in bleomycin-treated HCT116 cells
Assay type: cell-based
Settings: bleomycin-treated HCT116 cells, read-out: IC50 pDNA-PK
How it was run: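 Chemiluminescent ELISA read-out; phospho-specific signal normalised to total DNA-PKcs. Cells (HCT116) exposed 6 h to test compound plus 10 μM bleomycin to induce double-strand breaks; DMSO control served as blank.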

[1] = Homo sapiens, HCT-116, phospho-serine 2056 DNA-PK

Row | Structure (SMILES) | IC50 [1] | IC50 (phospho-serine 2056 DNA-PK)
1 | NC(=O)C(c1ccc(F)c(-c2ncnc3cc(N4CCOCC4)ccc23)c1)c1cncc(F)c1Cl (centres unmarked) [Example 322, 2-(4-Chloro-5-fluoro-pyridin-3-yl)-2-[4-fluoro-3-(7-morpholin-4-yl-quinazolin-4-yl)-phenyl]acetamide] | 0.5 to 5 µM | 
2 | NC(=O)C(c1ccc2nccn2n1)c1cc(-c2ncnc3cc(N4CCOCC4)ccc23)c(F)cc1Cl (centres unmarked) [Example 323, 2-[2-Chloro-4-fluoro-5-(7-morpholin-4-yl-quinazolin-4-yl)-phenyl]-2-imidazo-[1,2-b]pyridazin-6-yl-acetamide] | 0.5 to 5 µM | 
3 | Cc1nccnc1C(C(N)=O)c1cc(-c2ncnc3cc(N4CCOCC4)ccc23)c(F)cc1Cl (centres unmarked) [Example 324, 2-[2-Chloro-4-fluoro-5-(7-morpholin-4-yl-quinazolin-4-yl)-phenyl]-2-(3-methyl-pyrazin-2-yl)-acetamide] | 0.5 to 5 µM | 
4 | COc1ccc(C(C(N)=O)c2cc(-c3ncnc4cc(N5CCOCC5)ccc34)c(F)cc2Cl)nn1 (centres unmarked) [Example 325, 2-[2-Chloro-4-fluoro-5-(7-morpholin-4-yl-quinazolin-4-yl)-phenyl]-2-(6-methoxypyridazin-3-yl)acetamide] |  | 10 to 30 µM
5 | Cn1nc(C(O)c2ccc(F)c(-c3ncnc4cc(N5CCOCC5)ccc34)c2)ccc1=O (centres unmarked) [Example 326, 6-{[4-Fluoro-3-(7-morpholin-4-yl-quinazolin-4-yl)-phenyl]hydroxy-methyl}-2-methyl-2H-pyridazin-3-one] | 0.5 to 5 µM | 
6 | Cc1nccnc1C(C(N)=O)c1ccc(F)c(-c2ncnc3cc(N4CCOCC4)ccc23)c1 (centres unmarked) [Example 327, 2-[4-Fluoro-3-(7-morpholin-4-yl-quinazolin-4-yl)-phenyl]-2-(3-methyl-pyrazin-2-yl)-acetamide] | 10 to 30 µM | 
7 | OC(c1ccc(F)c(-c2ncnc3cc(N4CCOCC4)ccc23)c1)c1nccc2ccoc12 (centres unmarked) [Example 328, [4-Fluoro-3-(7-morpholin-4-yl-quinazolin-4-yl)-phenyl]furo[2,3-c]-pyridin-7-ylmethanol] | < 0.5 µM | 
8 | Cc1nccnc1C(C(N)=O)c1cc(-c2ncnc3cc(N4CCOCC4)ccc23)c(F)cc1F (centres unmarked) [Example 329, 2-[2,4-Difluoro-5-(7-morpholin-4-yl-quinazolin-4-yl)-phenyl]-2-(3-methyl-pyrazin-2-yl)-acetamide] | 5 to 10 µM | 
9 | Oc1ncnc(C(O)c2cc(-c3ncnc4cc(N5CCOCC5)ccc34)ccc2Cl)c1Cl (centres unmarked) [Example 330, 5-Chloro-6-{[2-chloro-5-(7-morpholin-4-yl-quinazolin-4-yl)-phenyl]hydroxy-methyl}pyrimidin-4-ol] | 10 to 30 µM | 
10 | Cc1nccnc1/C(C(=O)O)=C1/C=CC(=O)C(c2ncnc3cc(N4CCOCC4)ccc23)=C1 [Example 331, (3-methyl-pyrazin-2-yl)-[3-(7-morpholin-4-ylquinazolin-4-yl)-4-oxocyclohexa-2,5-dien-(E)-ylidene]-acetic acid] | 5 to 10 µM | 
11 | OC(c1ccc(F)c(-c2ncnc3cc(N4CCOCC4)ccc23)c1)c1nncc2ccsc12 (centres unmarked) [Example 332, [4-Fluoro-3-(7-morpholin-4-yl-quinazolin-4-yl)-phenyl]thieno[2,3-d}-pyridazin-7-yl-] | < 0.5 µM | 
12 | OC(c1ccc(F)c(-c2ncnc3cc(N4CCOCC4)ccc23)c1)c1nncc2sccc12 (centres unmarked) [Example 333, [4-Fluoro-3-(7-morpholin-4-yl-quinazolin-4-yl)-phenyl]thieno[2,3-d}-pyridazin-4-yl-methanol] | < 0.5 µM | 
13 | Cc1cc(C(C(N)=O)c2cc(-c3ncnc4cc(N5CCOCC5)ccc34)c(F)cc2Cl)n(C)c(=O)c1 (centres unmarked) [Example 334, 2-[2-Chloro-4-fluoro-5-(7-morpholin-4-yl-quinazolin-4-yl)-phenyl]-2-(1,4-dimethyl-6-oxo-1,6-dihydropyridin-2-yl)-acetamide] | 10 to 30 µM | 
14 | OC(c1ccc(F)c(-c2ncnc3cc(N4CCOCC4)ccc23)c1)c1nncc2ccoc12 (centres unmarked) [Example 335, [4-Fluoro-3-(7-morpholin-4-yl-quinazolin-4-yl)-phenyl]furo[2,3-d}-pyridazin-7-yl-methanol] | < 0.5 µM | 
15 | OC(c1cc(-c2ncnc3cc(N4CCOCC4)ccc23)c(F)cc1F)c1nncc2ccoc12 (centres unmarked) [Example 336, [2,4-Difluoro-5-(7-morpholin-4-yl-quinazolin-4-yl)-phenyl]furo[2,3-d}-pyridazin-7-yl-methanol] | < 0.5 µM | 
16 | O=c1[nH]nc(C(O)c2ccc(F)c(-c3ncnc4cc(N5CCOCC5)ccc34)c2)c2sccc12 (centres unmarked) [Example 337, 7-[[4-Fluoro-3-(7-morpholino-quinazolin-4-yl)-phenyl]hydroxy-methyl]-5H-thieno-[2,3-d}pyridazin-4-one] | 0.5 to 5 µM | 
17 | O=c1[nH]nc(C(O)c2ccc(F)c(-c3ncnc4cc(N5CCOCC5)ccc34)c2)c2ccsc12 (centres unmarked) [Example 338, 4-[[4-Fluoro-3-(7-morpholino-quinazolin-4-yl)-phenyl]hydroxy-methyl]-6H-thieno[2,3-d}-pyridazin-7-one] | 0.5 to 5 µM | 
18 | Cc1cc(C(O)c2cc(-c3ncnc4cc(N5CCOCC5)ccc34)c(F)cc2Cl)n(C)c(=O)c1 (centres unmarked) [Example 339, 6-{[2-Chloro-4-fluoro-5-(7-morpholin-4-yl-quinazolin-4-yl)-phenyl]hydroxy-methyl}-1,4-dimethyl-1H-pyridin-2-one] | 0.5 to 5 µM | 
19 | Cc1cc(C(O)c2ccc(F)c(-c3ncnc4cc(N5CCOCC5)ccc34)c2)n(C)c(=O)c1 (centres unmarked) [Example 340, 6-{[4-Fluoro-3-(7-morpholin-4-yl-quinazolin-4-yl)-phenyl]hydroxy-methyl}-1,4-dimethyl-1H-pyridin-2-one] | 0.5 to 5 µM | 
20 | OC(c1cc(-c2ncnc3cc(N4CCOCC4)ccc23)c(F)cc1F)c1nncc2sccc12 (centres unmarked) [Example 341, [2,4-Difluoro-5-(7-morpholin-4-yl-quinazolin-4-yl)-phenyl]thieno[2,3-d}-pyridazin-4-yl-methanol] | < 0.5 µM | 
21 | OC(c1cc(-c2ncnc3cc(N4CCOCC4)ccc23)c(F)cc1F)c1nncc2ccsc12 (centres unmarked) [Example 342, [2,4-Difluoro-5-(7-morpholin-4-yl-quinazolin-4-yl)-phenyl]thieno[2,3-d}-pyridazin-7-yl-methanol] | < 0.5 µM | 
22 | OC(c1ccc(F)c(-c2ncnc3cc(N4CCOCC4)ccc23)c1)c1nnc2ccccn12 (centres unmarked) [Example 343, [4-Fluoro-3-(7-morpholin-4-yl-quinazolin-4-yl)-phenyl]-[1,2,4]-triazolo[4,3-a]pyridin-3-ylmethanol (Ena 2)] |  | 0.5 to 5 µM
23 | OC(c1ccc(F)c(-c2ncnc3cc(N4CCOCC4)ccc23)c1)c1ncnn2cccc12 (centres unmarked) [Example 345, [4-Fluoro-3-(7-morpholin-4-yl-quinazolin-4-yl)-phenyl]pyrrolo[2,1-f]-[1,2,4]triazin-4-yl-methanol] | < 0.5 µM | 
24 | Cn1cnc2c(C(O)c3cc(-c4ncnc5cc(N6CCOCC6)ccc45)c(F)cc3F)ncnc21 (centres unmarked) [Example 347, [2,4-Difluoro-5-(7-morpholin-4-yl-quinazolin-4-yl)-phenyl]-(9-methyl-9H-purin-6-yl)-methanol (Ena 1)] |  | 0.5 to 5 µM
25 | NC(=O)C(c1cc(-c2ncnc3cc(N4CCOCC4)ccc23)c(F)cc1F)c1nccn2cccc12 (centres unmarked) [Example 348, 2-[2,4-Difluoro-5-(7-morpholin-4-yl-quinazolin-4-yl)-phenyl]-2-pyrrolo-[1,2-a]pyrazin-1-yl-acetamide] | 0.5 to 5 µM | 
26 | Cc1nccnc1Cc1ccc(F)c(-c2ncnc3cc(N4CCOCC4)ccc23)c1 [Example 349, 4-[2-Fluoro-5-(3-methyl-pyrazin-2-ylmethyl)phenyl]-7-morpholin-4-yl-quinazoline] | < 0.5 µM | 
